Measurements published in paper PMC12176101 (Drug Design, Development and Therapy, 2025).
Residues, ends and D or L forms follow the SMILES beside them.

Target: AChE (Homo sapiens, UniProt P22303)
Test: In vitro anti-AChE assay
Assay type: biochemical

Sequence of AChE (P22303 32-614): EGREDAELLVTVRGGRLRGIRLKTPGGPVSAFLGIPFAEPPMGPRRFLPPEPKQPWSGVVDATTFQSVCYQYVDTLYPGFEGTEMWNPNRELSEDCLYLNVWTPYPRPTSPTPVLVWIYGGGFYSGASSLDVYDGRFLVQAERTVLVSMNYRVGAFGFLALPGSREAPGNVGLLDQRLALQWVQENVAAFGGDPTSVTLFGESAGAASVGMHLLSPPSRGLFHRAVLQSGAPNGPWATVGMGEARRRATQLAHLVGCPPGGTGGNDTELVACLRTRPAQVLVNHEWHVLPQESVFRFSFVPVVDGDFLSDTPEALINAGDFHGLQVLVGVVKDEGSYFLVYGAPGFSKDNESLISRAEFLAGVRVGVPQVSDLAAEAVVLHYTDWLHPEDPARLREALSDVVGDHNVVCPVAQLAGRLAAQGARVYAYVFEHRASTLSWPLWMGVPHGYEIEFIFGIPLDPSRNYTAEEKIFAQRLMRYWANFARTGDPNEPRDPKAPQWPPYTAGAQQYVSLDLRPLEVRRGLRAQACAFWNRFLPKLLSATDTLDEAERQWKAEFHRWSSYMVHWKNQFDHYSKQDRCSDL

Row | Compound | IC50
1 | CC[C@H](C)[C@H](NC(=O)[C@H](Cc1c[nH]c2ccccc12)NC(=O)[C@@H](N)C(C)C)C(=O)N[C@H](C(=O)NCC(=O)N[C@@H](Cc1ccccc1)C(=O)N[C@@H](CCC(=O)O)C(=O)N[C@@H](Cc1c[nH]cn1)C(=O)N[C@@H](CCSC)C(=O)O)[C@@H](C)CC [VWIIGFEHM] (H-VWIIGFEHM-OH) | 3.9 µM
2 | CC[C@H](C)[C@H](NC(=O)[C@@H](N)Cc1c[nH]c2ccccc12)C(=O)NCC(=O)N[C@@H](CS)C(=O)N[C@@H](Cc1c[nH]c2ccccc12)C(=O)N[C@@H](CC(=O)O)C(=O)O [WIGCWD] (H-WIGCWD-OH) | 1.9 µM
3 | CC(C)C[C@H](NC(=O)[C@H](Cc1c[nH]cn1)NC(=O)[C@@H](N)Cc1c[nH]c2ccccc12)C(=O)N[C@@H](CS)C(=O)N[C@H](C(=O)N[C@@H](CC(C)C)C(=O)N[C@@H](Cc1ccccc1)C(=O)O)C(C)C [WHLCVLF] (H-WHLCVLF-OH) | 1.5 µM
4 | CSCC[C@H](NC(=O)[C@@H](NC(=O)[C@H](Cc1c[nH]cn1)NC(=O)[C@@H](N)CC(C)C)[C@@H](C)O)C(=O)N[C@@H](CCC(=O)O)C(=O)N[C@@H](CC(C)C)C(=O)N[C@@H](CC(C)C)C(=O)O [LHTMELL] (H-LHTMELL-OH) | 10.6 µM
